Results on one molecule are retold here after patent US8772297B2, “TGF-β signal transduction inhibitor” (Kyoto University, priority 2010, dated 2014).

One test has as its system ARPE-19 cells. Briefly: Evaluation of TGF-β-induced epithelial-mesenchymal transition (EMT) inhibitory activity. It is filed as cell-based. The note with it: human TGF-β2 10 ng/mL and human TNF 10 ng/mL, 2 days, Giemsa stain, FIG. 1. How it is done: Human retinal pigment epithelial cells (ARPE-19 cells) were seeded in a 96 well plate at a concentration of 1.2×10^4 cells/well, and cultured overnight (5% CO2, 37° C.) in DMEM/F12 medium containing 10% fetal bovine serum, penicillin (100 U/mL), streptomycin (100 μg/mL) and Hepes (10 mM). The next day, the medium was changed to a serum-free medium, and a test compound was added. After 1 hr, the cells were stimulated with human TGF-β2 (10 ng/mL) and human TNF (10 ng/mL). After culture for 2 days, the cells were stained with Giemsa, and the influence of the compound on the formation of cell aggregates was evaluated.

Another test concerns liver Kupffer cells. Nature of the test: Influence on activation of liver Kupffer cells in primary culture system. The note with it: rat primary culture, 7 days. It is filed as cell-based. How it is done: Wistar rat (bred under SPF, male, 15-week-old) was subjected to laparotomy under pentobarbital anesthesia, a catheter was inserted into the portal vein, and perfusion was performed successively with a washing solution for hemorrhage, a 0.06% pronase solution (manufactured by Carbiochem), and a 0.03% collagenase (manufactured by Wako Pure Chemical Industries, Ltd.) solution. Then, the liver was isolated and incubated in a liver Kupffer cell separation buffer containing 0.057% pronase and 0.057% collagenase, and supplemented with 2 mg/mL DNaseI (1 mL, manufactured by Roche Diagnostics) in a warm bath at 36° C. for 30 min. During this period, the pH of the lysate was maintained at 7.2-7.4 with 1N NaOH. Then, the hepatic tissue digestive product was filtered through a mesh, a liver Kupffer cell separation buffer was added to the obtained filtrate to the total amount of 150 mL. The mixture was dispensed to three 50-mL polypropylene tubes, and centrifuged at 4° C., 2000 rpm for 8 min. […]
On the other hand, respective cells were washed with phosphate buffer (PBS: phosphate buffered saline) 7 days later, and fixed with 4% para-formaldehyde at room temperature for 10 min. […] Then, the cells were washed with PBST, and the α smooth muscle actin (αSMA) expression level was observed under a fluorescence microscope.

The subject of test [1] is mouse bile duct ligation induced hepatic fibrosis model. Briefly: Anti-fibrillization action in mouse bile duct ligation induced hepatic fibrosis model (BDL model). Format: in vivo. Conditions: ICR mice, tail vein once a day for 14 days, qPCR vs GAPDH, FIG. 4. How it is done:
Hepatopathy caused by accumulation of bile in the liver and therewith associated liver fibrillization are induced by ligating the bile duct of mouse. The effect of the test compound on the hepatopathy and liver fibrillization associated therewith was evaluated. […]
mRNA was extracted from the hepatic tissue preserved in RNALater by using an RNA purification kit RNeasy Micro Kit (manufactured by QIAGEN), and the RNA concentration was determined using a spectrophotometer (Nano Drop). […] Using SYBR® Premix EX Taq™ (manufactured by TAKARA), a reaction mixture was prepared according to the package insert, qPCR reaction was performed using respective primers for αSMA and the internal standard GAPDH (manufactured by Invitrogen), and the mRNA expression level was quantified.

For the molecule `CN(C)c1ccc(NS(=O)(=O)c2cccc(S(=O)(=O)NCC3CCN(C(=O)OC(C)(C)C)CC3)c2)cc1-c1ccco1` [Y244, 4-{[3-(4-dimethylamino-3-furan-2-yl-phenylsulfamoyl)benzenesulfonylamino]methyl}piperidine-1-carboxylic acid tert-butyl ester], in the test on ARPE-19 cells, the “EMT induced by TGF-β (formation of cell aggregates)” value is given as “remarkably suppressed”. In addition, the “expression of α smooth muscle actin associated with the activation of liver Kupffer cells” value in the test on liver Kupffer cells (Cy3-labeled anti-αSMA antibody, fluorescence microscope, FIG. 3) is “remarkably suppressed”. The “cell morphology change caused by the activation of liver Kupffer cells” value with liver Kupffer cells (bright field, FIG. 2) was “suppressed”. Further, the “mRNA expression level of α smooth muscle actin in the liver tissue” value in test [1] is listed as “significantly suppressed”.
